Positions of bridges follow the written chain, without caps; N, C: chain ends. Chains are numbered I, II in the order given.
Legend:
[1] = system: BV2 microglia cells; test: LPS-induced nitric oxide production in BV2 microglia cells; format: cell-based
Method: FIG. 1. COG 112 inhibits LPS-induced production of inflammatory cytokines in BV2 microglia cells. Inhibition curves for COG112 in the production of NO (green squares), TNFα (red diamonds), and IL-6 (blue triangles) by BV2 microglia. Compounds were added to the final concentrations indicated on the graph along with 100 ng/mL of LPS. After 24 hours the media was removed and assayed by two-site ELISA (BioSource) and quantitated relative to a standard curve on the same plate.
FIG. 3. NO Inhibition curve for COG449. BV2 microglia were treated with COG449 at the final concentrations indicated on the graph, along with 100 ng/mL of LPS. After 24 hours the media was removed and assayed by two-site ELISA (BioSource) and quantitated relative to a standard curve on the same plate.
We also evaluated the various peptides for efficacy in suppressing nitric oxide production induced by LPS stimulation of BV2 microglia cells as a measure of anti-inflammatory activity as well as the maximum dose tolerated in mice (Table I and FIG. 6A). For the LPS assay, EC50 is the concentration of compound that caused a 50% suppression of nitric oxide release from BV2 cells following LPS stimulation. For mouse toxicity, MTD is the maximum dose of the compound that can be given by intravenous injection without causing deaths after 24 hrs. […] Coupling the ApoE domain to a protein transduction domain further enhanced the potency of the dimers.
Low passage BV2 microglial cell cultures are maintained in 10% HI (Heat Inactivated) FBS DMEM media (supplemented with MEM NEAA (Non-Essential Amino Acids), sodium pyruvate and Pen-Strep) and continuously cultured until needed. To determine the IC50 values for NO production, peptides are added to BV2 cultures in 1% HI FBS DMEM media (supplemented with MEM NEAA and sodium pyruvate) at a range of final assay concentrations from 1.0 μM in 2 fold dilutions to 7.8 nM followed immediately by addition of LPS (100 ng/mL final concentration) as previously described (Laskowitz et al. (2001) Exp Neurol, Vol. 167(1): 74-85). After incubating for 18±1 hours, conditioned media is removed for analysis of nitrite (the stable oxidation product of released nitric oxide) by the Griess colorimetric assay (Promega). Remaining cells are assayed for viability in an MTT assay (Promega) and the nitrite assay values are normalized for each concentration using the percent viability of cells in the MTT assay. […] Typically, the absence of LPS exposure to BV2 cells results in levels below the limit of detection in our assays. Similarly, addition of any of the peptides up to 25 μM without LPS results in undetectable NO levels.

[2] = Cytotoxicity on normal B-cells from volunteers; format: cell-based, human; conditions: human, normal B-cells from volunteers
[3] = system: normal B-cells; test: Cytotoxicity on normal B-cells from volunteers; format: cell-based, human
[4] = system: EGFR; test: EGF-induced EGFR activation, Western blot; format: cell-based; conditions: up to 1 μM, U87 and MB231, EGF
Source text: FIGS. 10A-10B. […] FIG. 10A: Western blot analysis of U87 glioblastoma cells exposed to the indicated concentrations of COG445 peptide in the presence of EGF. The blot is probed with antibodies for the activated EGF receptor (P-EGFR), total EGF receptor, activated PDK1 (P-PDK1), and total PDK1. FIG. 10B: Western blot and densitometry analysis of Akt activation induced by EGF in U87 cells in the presence of increasing concentrations of COG445.
Akt signaling is often dysregulated in cancers thereby promoting cellular survival and proliferation. […] Given the effect of ApoE peptides on other inflammatory pathologies, we investigated the effect of an ApoE peptide dimer on Akt signaling in breast and brain cancer cells. A disulfide dimer of COG112 (SEQ ID NO: 1) was prepared as described in Example 1 (COG445). Adherent breast cancer cells, MDA-MB-231 (MB231), or glioblastoma cells, U87-MG (U87), were serum starved overnight and then exposed to COG445 for 2 hours before stimulating with epidermal growth factor (EGF) for 5 minutes. […] EGFR activation results in the activation of the PI3K/Akt signaling pathway, which is mediated by PDK1 activation.

[5] = target: recombinant human PP2A catalytic subunit (Homo sapiens, UniProt P67775); test: Recombinant human PP2A catalytic subunit activity; format: biochemical; conditions: up to 10 μM
recombinant human PP2A catalytic subunit, sequence (P67775 whole entry): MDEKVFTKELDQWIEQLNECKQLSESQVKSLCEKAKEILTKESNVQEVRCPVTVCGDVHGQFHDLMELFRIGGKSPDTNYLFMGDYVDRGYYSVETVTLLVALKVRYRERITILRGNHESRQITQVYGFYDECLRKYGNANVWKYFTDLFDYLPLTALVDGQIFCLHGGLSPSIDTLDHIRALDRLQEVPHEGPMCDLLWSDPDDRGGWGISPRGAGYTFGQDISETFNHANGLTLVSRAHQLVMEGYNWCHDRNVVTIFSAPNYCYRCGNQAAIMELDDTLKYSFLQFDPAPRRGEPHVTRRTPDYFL
Method: To examine the mechanism of COG445 on PP2A activity, recombinant human PP2A catalytic subunit was incubated with COG445 and activity was measured. […] To further explore the changes of PP2A protein complexes, co-immunoprecipitation experiments were performed on MB231 cells.

[6] = system: GSK-3β; test: GSK-3β phosphorylation in MB231 cells, Western blot; format: cell-based; conditions: markedly reduced at ≧100 nM
Source text: FIG. 13A: Western blot and densitometry analysis of phosphorylated m-TOR levels in MDA-MB-231 cells treated with EGF and the indicated concentrations of COG445 in the presence or absence of okadaic acid. FIG. 13B: Western blot analysis of phosphorylated GSK-3β levels in MDA-MB-231 cells treated with EGF and the indicated concentrations of COG445 in the presence or absence of okadaic acid.
Akt exerts its proliferative signal by phosphorylating protein substrates such as mTOR and GSK-3β. To examine the effects of COG445 on downstream Akt signaling in MB231 cells, mTOR activation and GSK-3β inhibition was measured by western blot analysis. […] The reduction in mTOR and GSK-3β phosphorylation was eliminated in the presence of okadaic acid, further evidence that PP2A mediates the effects of COG445 on Akt signaling.

[7] = system: MB231 cells; test: Apoptosis after 24 hours of COG445; format: cell-based; conditions: 1-1000 nM

## I: Ac-RQIKIWFQNRRMKWKKCLRVRLASHLRKLRKRLL-NH2 / II: Ac-RQIKIWFQNRRMKWKKCLRVRLASHLRKLRKRLL-NH2 (disulfide I:17-II:17) [COG445, COG112-C-C-COG112]
[1]; 50% suppression of nitric oxide release from BV2 cells following LPS stimulation
  EC50: < 1000 nM
[1]; BV2 cells, LPS 100 ng/mL, read-out: IC50 for NO production/release
  IC50: 20 nM
[2]
  EC50 at 72 h: > 10000 nM
[3]
  EC50 normal B-cells relative to CLL cells: ~200 fold
[4]
  EGFR activation (tyrosine 1045 phosphorylation): did not alter
[5]
  rate of phosphatase activity: did not have any effect
[6]
  GSK-3β phosphorylation upon EGF stimulation: dose-dependent decrease
[7]
  apoptosis: no indication of apoptosis

— US9809640B2, “ApoE peptide dimers and uses thereof” (priority 2010, dated 2017)
